Experimental data published in PMC9504950, “In Vitro and In Silico Analyses of New Cinnamid and Rosmarinic Acid-Derived Compounds Biosynthesized in Escherichia coli as Leishmania amazonensis Arginase Inhibitors” (Pathogens, 2022).
Values joined by “and” are separate entries in the source; they are usually repeats but may differ in a detail not shown here. Equal entries are not always repeated. Where two headings read alike, the source gives them in different places. Blank lines part the entries; values can stand above or below the compound they belong to.

Experiments:
[1] = molecular target: T1, L. amazonensis arginase (L-ARG) (Leishmania amazonensis, UniProt O96394); assay: Recombinant L. amazonensis arginase (L-ARG) inhibition, IC50; format: biochemical; conditions: for IC50: mean ± SEM; for fold decrease of enzyme inhibition relative to compound 4: compared with compound 4
Experimental: (§1) Recombinant L-ARG was expressed and purified as previously described. A stock solution of 70 mM was prepared in DMSO and was stored at −20 °C for each compound just before the experiment. The concentration that inhibited 50% of the catalytic activity of the enzyme (IC50) was determined using an inhibitor concentration from 200 μM to 0.05 μM; the concentrations were obtained via a serial dilution in water (1:4). The kinetics were determined using three concentrations of the substrate and three concentrations of inhibitor, as previously described. Two independent experiments were performed in triplicate with a coefficient of nonlinear regression R^2 ≥ 0.85. The sigmoidal model (log IC50) was used to determine the IC50 using GraphPad Prism 7 software for Windows (San Diego, CA, USA).

L. amazonensis = tested on: L. amazonensis; parameters: method as in PMID 24906989; conditions: BALB/c mice, cutaneous leishmaniasis; cited from earlier work
[2] = molecular target: T1, L. amazonensis arginase (L-ARG); conditions: cited from earlier work
[3] = tested on: promastigotes and amastigotes of L. amazonensis; conditions: cited from earlier work
[4] = molecular target: T1, L. amazonensis arginase (L-ARG); assay: Kinetics of arginase inhibition (Dixon and Cornish-Bowden plots); format: biochemical; conditions: for Mechanism of Inhibition: Dixon and Cornish-Bowden plots; for Ki: Dixon plots, L-arginine 100, 50 and 25 mM
Experimental: The enzyme kinetics were performed to determine the mechanism of inhibition and the dissociation constant (Ki) of the compounds via the simultaneous analysis of the Dixon and Cornish-Bowden plots. The Ki inhibition constants (complex EI), which refer to the equilibriums established between the […] in the presence of an inhibitor (I), were determined (Table 1).
as §1
Figure 1 Kinetics of the arginase inhibition by compounds 2–4, 7, and 9. The mechanism of action was determined by an analysis of the Dixon (A) and Cornish-Bowden plots (B); the Ki constant was measured using Dixon plots by calculating the X values at the intersection point of the lines. […] Each drawn point represents the mean of three independent experiments (n = 3) performed in duplicate.

[5] = recombinant L-ARG, read-out: IC50

IC50 ([1]; recombinant L-ARG): Inactive
Compound: O=C(/C=C/c1ccc(O)cc1)O[C@H](Cc1ccccc1)C(=O)O [Compound 1]

Compound: O=C(/C=C/c1ccc(O)c(O)c1)O[C@H](Cc1ccc(O)c(O)c1)C(=O)O [rosmarinic acid]
lesion size and parasite burden (L. amazonensis): effective in reducing the lesion size and parasite burden
L-ARG inhibition (in words) [2]: inhibitory profile
activity against the promastigotes and amastigotes of L. amazonensis [3]: active

Compound: COc1cc(/C=C/C(=O)O)ccc1O [ferulic acid]
lesion size and parasite burden (L. amazonensis): effective in reducing the lesion size and parasite burden
activity against the promastigotes and amastigotes of L. amazonensis [3]: active

fold decrease of enzyme inhibition relative to compound 4 [1]: at least 100 times
L-ARG inhibition (in words) ([1]; recombinant L-ARG): weak inhibition
IC50 [1, 5]: > 200 µM
Compound: O=C(CCc1ccc(O)cc1)O[C@H](Cc1ccc(O)cc1)C(=O)O [Compound 5]

Compound: O=C(O)/C=C/c1ccc(O)c(O)c1 [caffeic acid]
lesion size and parasite burden (L. amazonensis): effective in reducing the lesion size and parasite burden
L-ARG inhibition (in words) [2]: inhibitory profile
activity against the promastigotes and amastigotes of L. amazonensis [3]: active

IC50 ([1]; recombinant L-ARG): Inactive
Compound: O=C(CCc1ccc(O)cc1)O[C@H](Cc1ccccc1)C(=O)O [Compound 6]

Compound: C[C@@H]1O[C@@H](O[C@@H]2[C@@H](O)[C@H](OCCc3ccc(O)c(O)c3)O[C@H](CO)[C@H]2OC(=O)/C=C/c2ccc(O)c(O)c2)[C@H](O)[C@H](O)[C@H]1O [verbascoside]
L-ARG inhibition (in words) [2]: inhibits
activity against promastigote and intracellular amastigotes of the parasite [3]: active

IC50 ([1]; recombinant L-ARG): Inactive
Compound: O=C(/C=C/c1ccc(O)cc1)Nc1cc(Cl)ccc1C(=O)O [Compound 8]

Compound: O=C(/C=C/c1ccc(O)c(O)c1)O[C@@H]1C[C@](O)(C(=O)O)C[C@@H](O)[C@H]1O [chlorogenic acid]
activity against the promastigotes and amastigotes of L. amazonensis [3]: active

IC50 [1, 5]: 2.8 ± 0.9 µM
Mechanism of Inhibition [4]: Noncompetitive
Ki [4]: 5.7 ± 0.7 µM
Compound: O=C(CCc1ccc(O)c(O)c1)O[C@H](Cc1ccccc1)C(=O)O [Compound 2]

IC50 ([1]; recombinant L-ARG): Inactive
Compound: O=C(CCc1ccc(O)cc1)Nc1cc(Cl)ccc1C(=O)O [Compound 10]

fold decrease of enzyme inhibition relative to compound 4 [1]: approximately 20 times
IC50 [1, 5]: 36.2 µM and 36 µM
Mechanism of Inhibition [4]: Noncompetitive
Ki [4]: 74 ± 8 µM
Compound: O=C(O)CC(OC(=O)/C=C/c1ccc(O)c(O)c1)C(=O)O (stereo not shown) [Compound 7]

IC50 [1, 5]: 3 ± 0.2 µM
Mechanism of Inhibition [4]: Noncompetitive
Ki [4]: 3.9 ± 0.4 µM
Compound: O=C(CCc1ccc(O)c(O)c1)O[C@H](Cc1ccc(O)c(O)c1)C(=O)O [Compound 3]

IC50 [1, 5]: 5.5 ± 0.5 µM
Mechanism of Inhibition [4]: Competitive
Ki [4]: 4.6 ± 1.7 µM
Compound: O=C(/C=C/c1ccc(O)c(O)c1)Nc1cc(F)c(F)cc1C(=O)O [Compound 9]

IC50 [1, 5]: 1.9 ± 0.7 µM
Mechanism of Inhibition [4]: Noncompetitive
Ki [4]: 2 ± 0.6 µM
Compound: O=C(CCc1ccc(O)c(O)c1)O[C@H](Cc1ccc(O)cc1)C(=O)O [Compound 4]
